Source: PMC11306511, “Combining VPS34 inhibitors with STING agonists enhances type I interferon signaling and anti‐tumor efficacy” (Molecular Oncology, 2024)

Legend:
Conditions in all cases: 2 μM, 24 h, vs DMSO
[1] = system: B16-F10 cells; experiment: IFN/cytokine gene expression (qRT-PCR) and secretion (MSD) in B16-F10 cells; type: cell-based, murine
Procedure: (§1) RNA was isolated using the PureLink kit (#12183018A; Thermo Fisher) and DNA‐binding columns (Rneasy plus kit, #74134; Qiagen) and/or Dnase treatment (#12185010; Thermo Fisher). After quantification using NanoDrop, 50 ng·μL^−1 RNA was used for cDNA synthesis with SuperScript IV VILO Master Mix (#11756050; Thermo Fisher). Quantitative RT‐PCR was run with diluted cDNA (1 : 25 or 1 : 12.5), PowerUp SYBR Green Master Mix (#A25741; Thermo Fisher), and 200 nM primers (see Table S3) on a CFX Connect RT‐PCR system (BioRad, Hercules, CA, USA). Data were analyzed using the ΔΔCT method.
(§2) Cell culture medium was centrifuged at 300 g for 10 min at 4 °C and supernatant stored at −80 °C. Mouse blood was collected at termination in K2‐EDTA tubes on ice, centrifuged at 1270 g for 10 min at 4 °C, and plasma was stored at −80 °C. Cytokine levels were quantified using Mesoscale Discovery (MSD) assays: human CCL5 (#F21ZN), CXCL10 (#K151UFK), IFNβ (#K151VIK); mouse CCL5 (#K152A2K) and CXCL10 (#K152UFK). Low concentrations of human IFNβ were determined using High‐Sensitivity IFNβ ELISA (#41415‐1; PBL Assay Science, Piscataway, NJ, USA). CCL5/CXCL10 levels in some experiments were quantified using R&D Systems (Minneapolis, MN, USA) ELISAs: human CCL5 (#DY278) or CXCL10 (#DY266); mouse CCL5 (#DY478).

[2] = system: Me30966 cells; experiment: Gene expression (qRT-PCR) in Me30966 cells; type: cell-based, human
Procedure: (A) IFNB1 gene expression quantified by qRT-PCR after 24h treatment with DMSO control or 2 µM of VPS34 inhibitor
(=VPS34i, SB02024 or SAR405) in Me30966 cells.

[3] = system: A-498 cells; experiment: IFN/cytokine gene expression (qRT-PCR) and secretion (MSD) in A-498 cells; type: cell-based, human
Procedure: as §1, §2

C[C@@H]1COCCN1c1cc(=O)n2c(n1)N(Cc1cncc(Cl)c1)[C@H](C(F)(F)F)CC2 [SAR405, reference compound]
significantly increased: transcription of IFNB1 and ISGs IRF1, IRF7, IRF9 [1] | IFNB1 expression [2] | transcription of IFNB1 and ISGs IRF1, IRF7, IRF9 [3]
